Data: patent US12600709B2, “Nonpeptide somatostatin type 5 receptor agonists and uses thereof” (Crinetics Pharmaceuticals, Inc., priority 2019, dated 2026)
pEC50: −log10 of the molar value. Where two headings read alike, the source gives them in different places.

Columns and labels:
[1] = biological target: T1, human somatostatin receptor subtype 2 (Homo sapiens, UniProt P30874); assay: cAMP assay for SST2R (inhibition of cAMP in CHO-K1 cells); type: cell-based; conditions: Table B; inhibition of cAMP via human SST2 receptor; read-out: SST2 potency
T1 construct: expressed in transfected cells
Summary of the method: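 Agonism read as decrease in NKH477 (1.6 μM)-stimulated cAMP: compounds applied 20 min, 37° C, with 0.2 mM IBMX, to CHO-K1 stably expressing human SSTR2. cAMP quantified in lysates by time-resolved fluorescence (HTRF kit, 1-24 h RT), standard-curve regression, then EC50.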

[2] = biological target: T2, human somatostatin receptor subtype 5 (Homo sapiens, UniProt P35346); assay: cAMP assay for SST5R (inhibition of cAMP in CHO-K1 cells); type: cell-based; conditions: for pEC50: inhibition of cAMP via human SST5 receptor, read-out: SST5 potency; for Fold selectivity for SST5 vs SST2: class symbols, SST5 receptor over SST2 receptor
T2 construct: expressed in transfected cells
Summary of the method: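 CHO-K1 cells stably expressing human SSTR5 were treated 20 min at 37 °C with compounds plus 1.6 μM NKH477 in HBSS, 0.5 mM HEPES pH 7.4, 0.1% BSA, 0.2 mM IBMX. Lysate cAMP measured by HTRF against a standard curve; EC50 from cAMP-versus-concentration plots.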

T1 sequence (P30874 whole entry): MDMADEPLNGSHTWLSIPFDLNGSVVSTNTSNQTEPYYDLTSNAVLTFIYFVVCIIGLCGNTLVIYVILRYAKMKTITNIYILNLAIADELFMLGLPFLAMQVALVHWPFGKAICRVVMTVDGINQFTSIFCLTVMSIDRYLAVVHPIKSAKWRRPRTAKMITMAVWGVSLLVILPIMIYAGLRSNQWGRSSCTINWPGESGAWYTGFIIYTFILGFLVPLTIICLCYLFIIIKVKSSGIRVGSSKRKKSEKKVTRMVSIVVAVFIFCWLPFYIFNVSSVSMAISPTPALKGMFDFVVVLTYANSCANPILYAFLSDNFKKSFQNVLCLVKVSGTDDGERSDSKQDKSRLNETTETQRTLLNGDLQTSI
T2 sequence (P35346 whole entry): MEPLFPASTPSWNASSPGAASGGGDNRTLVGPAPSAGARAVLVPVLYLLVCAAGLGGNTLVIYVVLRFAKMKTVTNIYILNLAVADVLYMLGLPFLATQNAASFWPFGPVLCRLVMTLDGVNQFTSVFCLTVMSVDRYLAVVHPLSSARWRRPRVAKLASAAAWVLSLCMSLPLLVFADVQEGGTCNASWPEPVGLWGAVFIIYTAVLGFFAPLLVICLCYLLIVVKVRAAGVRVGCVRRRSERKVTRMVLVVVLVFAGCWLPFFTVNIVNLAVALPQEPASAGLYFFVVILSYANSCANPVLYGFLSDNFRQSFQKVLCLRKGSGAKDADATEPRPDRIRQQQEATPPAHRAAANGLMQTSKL

SMILES | pEC50 [1] | pEC50 ([2]; Table A) | Fold selectivity for SST5 vs SST2 ([2]; Table B) | pEC50 ([2]; Table B)
C[C@H](NC(=O)c1cnc(OCC(F)F)c(-c2cc(F)cc(F)c2)c1N1CC[C@](C)(N)C1)C1CC1 [1-177, 4-[(3S)-3-amino-3-methylpyrrolidin-1-yl]-N-[(1S)-1-cyclopropylethyl]-6-(2,2-difluoroethoxy)-5-(3,5-difluorophenyl)pyridine-3-carboxamide] | 7.00 to 8.00 | > 8.00 | +++ (+++=>500) | > 8.00
C[C@H](NC(=O)c1cnc(OCC2CC2)c(-c2cc(F)cc(F)c2)c1N1CC[C@](C)(N)C1)C1CC1 [1-178, 4-[(3S)-3-amino-3-methylpyrrolidin-1-yl]-N-[(1S)-1-cyclopropylethyl]-6-(cyclopropylmethoxy)-5-(3,5-difluorophenyl)pyridine-3-carboxamide] | 7.00 to 8.00 | > 8.00 | +++ (+++=>500) | > 8.00
COCCOc1ncc(C(=O)N[C@@H](C)C2CC2)c(N2CC[C@](C)(N)C2)c1-c1cc(F)cc(F)c1 [1-179, 4-[(3S)-3-amino-3-methylpyrrolidin-1-yl]-N-[(1S)-1-cyclopropylethyl]-5-(3,5-difluorophenyl)-6-(2-methoxyethoxy)pyridine-3-carboxamide] | 6.00 to 7.00 | > 8.00 | +++ (+++=>500) | > 8.00
C[C@H](NC(=O)c1cnc(C#N)c(-c2cc(F)cc(OC(F)F)c2)c1N1CC[C@](C)(N)C1)C(F)(F)F [1-180, 4-[(3S)-3-amino-3-methylpyrrolidin-1-yl]-6-cyano-5-[3-(difluoromethoxy)-5-fluorophenyl]-N-[(2S)-1,1,1-trifluoropropan-2-yl]pyridine-3-carboxamide] | 7.00 to 8.00 | > 8.00 | +++ (+++=>500) | > 8.00
Cc1ncc(C(=O)NC2CCC(F)(F)CC2)c(N2CC[C@](C)(N)C2)c1-c1cc(F)cc(F)c1 [1-181, 4-[(3S)-3-amino-3-methylpyrrolidin-1-yl]-N-(4,4-difluorocyclohexyl)-5-(3,5-difluorophenyl)-6-methylpyridine-3-carboxamide] | 6.00 to 7.00 | > 8.00 | +++ (+++=>500) | > 8.00
COc1ncc(C(=O)N[C@@H](C)C(F)(F)F)c(N2CC[C@](C)(N)C2)c1-c1ccc2ncn(C)c2c1 [1-182, 4-[(3S)-3-amino-3-methylpyrrolidin-1-yl]-6-methoxy-5-(1-methyl-1H-1,3-benzodiazol-6-yl)-N-[(2S)-1,1,1-trifluoropropan-2-yl]pyridine-3-carboxamide] | < 6.00 | > 8.00 | +++ (+++=>500) | > 8.00
COc1ncc(C(=O)N[C@@H](C)C(F)(F)F)c(N2CC[C@](C)(N)C2)c1-c1cccc2c1cnn2C [1-183, 4-[(3S)-3-amino-3-methylpyrrolidin-1-yl]-6-methoxy-5-(1-methyl-1H-indazol-4-yl)-N-[(2S)-1,1,1-trifluoropropan-2-yl]pyridine-3-carboxamide] | < 6.00 | > 8.00 | +++ (+++=>500) | > 8.00
COc1ncc(C(=O)N[C@@H](C)C(F)(F)F)c(N2CC[C@](C)(N)C2)c1-c1cccc2c1OC(F)(F)O2 [1-184, 4-[(3S)-3-amino-3-methylpyrrolidin-1-yl]-5-(2,2-difluoro-2H-1,3-benzodioxol-4-yl)-6-methoxy-N-[(2S)-1,1,1-trifluoropropan-2-yl]pyridine-3-carboxamide] | 6.00 to 7.00 | > 8.00 | +++ (+++=>500) | > 8.00
COc1ncc(C(=O)N[C@@H](C)C(F)(F)F)c(N2CC[C@](C)(N)C2)c1-c1ccc2nonc2c1 [1-186, 4-[(3S)-3-amino-3-methylpyrrolidin-1-yl]-5-(2,1,3-benzoxadiazol-5-yl)-6-methoxy-N-[(2S)-1,1,1-trifluoropropan-2-yl]pyridine-3-carboxamide] | 6.00 to 7.00 | > 8.00 | +++ (+++=>500) | > 8.00
COc1ncc(C(=O)N[C@@H](C)C(F)(F)F)c(N2CC[C@](C)(N)C2)c1-c1c(C)noc1C [1-187, 4-[(3S)-3-amino-3-methylpyrrolidin-1-yl]-5-(3,5-dimethyl-1,2-oxazol-4-yl)-6-methoxy-N-[(2S)-1,1,1-trifluoropropan-2-yl]pyridine-3-carboxamide] | < 6.00 | > 8.00 | +++ (+++=>500) | > 8.00
COc1ncc(C(=O)N[C@@H](C)C(F)(F)F)c(N2CC[C@](C)(N)C2)c1-c1cc(F)cc(OC(F)F)c1 [1-188, 4-[(3S)-3-amino-3-methylpyrrolidin-1-yl]-5-[3-(difluoromethoxy)-5-fluorophenyl]-6-methoxy-N-[(2S)-1,1,1-trifluoropropan-2-yl]pyridine-3-carboxamide] | 6.00 to 7.00 | > 8.00 | +++ (+++=>500) | > 8.00
C[C@H](NC(=O)c1cnc(C#N)c(-c2cc(F)cc(F)c2)c1N1CC[C@](C)(N)C1)C(F)(F)F [1-192, 4-[(3S)-3-amino-3-methylpyrrolidin-1-yl]-6-cyano-5-(3,5-difluorophenyl)-N-[(2S)-1,1,1-trifluoropropan-2-yl]pyridine-3-carboxamide] | 7.00 to 8.00 | > 8.00 | ++ (++=100 to 499) | > 8.00
C[C@H](NC(=O)c1cnc(C(F)(F)F)c(-c2cc(F)cc(Cl)c2)c1N1CC[C@](C)(N)C1)C1CC1 [1-195, 4-[(3S)-3-amino-3-methylpyrrolidin-1-yl]-5-(3-chloro-5-fluorophenyl)-N-[(1S)-1-cyclopropylethyl]-6-(trifluoromethyl)pyridine-3-carboxamide] | 7.00 to 8.00 | > 8.00 | ++ (++=100 to 499) | > 8.00
COc1ncc(C(=O)NC23CC(F)(C2)C3)c(N2CC[C@H](N)C2)c1-c1cc(F)cc(F)c1 [1-196, 4-[(3S)-3-aminopyrrolidin-1-yl]-5-(3,5-difluorophenyl)-N-{3-fluorobicyclo[1.1.1]pentan-1-yl}-6-methoxypyridine-3-carboxamide] | < 6.00 | > 8.00 | +++ (+++=>500) | > 8.00
COc1cc(C#N)cc(-c2c(C(F)(F)F)ncc(C(=O)N[C@@H](C)C3CC3)c2N2CC[C@](C)(N)C2)c1 [1-197, 4-[(3S)-3-amino-3-methylpyrrolidin-1-yl]-5-(3-cyano-5-methoxyphenyl)-N-[(1S)-1-cyclopropylethyl]-6-(trifluoromethyl)pyridine-3-carboxamide] | 6.00 to 7.00 | > 8.00 | +++ (+++=>500) | > 8.00

Results, then the compound that gave them:

pEC50 [1] | pEC50 ([2]; Table A) | Fold selectivity for SST5 vs SST2 ([2]; Table B) | pEC50 ([2]; Table B) | SMILES
7.00 to 8.00 | > 8.00 | ++ (++=100 to 499) | > 8.00 | C[C@H](NC(=O)c1cnc(C(F)(F)F)c(-c2cc(F)cc(Cl)c2)c1N1CC[C@H](N)C1)C1CC1 [1-198, 4-[(3S)-3-aminopyrrolidin-1-yl]-5-(3-chloro-5-fluorophenyl)-N-[(1S)-1-cyclopropylethyl]-6-(trifluoromethyl)pyridine-3-carboxamide]
6.00 to 7.00 | > 8.00 | +++ (+++=>500) | > 8.00 | C[C@H](NC(=O)c1cnc(C(F)(F)F)c(-c2cc(F)cc(F)c2)c1N1CC[C@H](N)C1)C1CC1 [1-199, 4-[(3S)-3-aminopyrrolidin-1-yl]-N-[(1S)-1-cyclopropylethyl]-5-(3,5-difluorophenyl)-6-(trifluoromethyl)pyridine-3-carboxamide]
6.00 to 7.00 | > 8.00 | +++ (+++=>500) | > 8.00 | CCOC(=O)COc1ncc(C(=O)NC2CCC(F)(F)CC2)c(N2CC[C@H](N)C2)c1-c1cc(F)cc(F)c1 [1-200, ethyl 2-({4-[(3S)-3-aminopyrrolidin-1-yl]-5-[(4,4-difluorocyclohexyl)carbamoyl]-3-(3,5-difluorophenyl)pyridin-2-yl}oxy)acetate]
< 6.00 | > 8.00 | +++ (+++=>500) | > 8.00 | CCOC(=O)CCOc1ncc(C(=O)NC2CCC(F)(F)CC2)c(N2CC[C@H](N)C2)c1-c1cc(F)cc(F)c1 [1-201, ethyl 3-({4-[(3S)-3-aminopyrrolidin-1-yl]-5-[(4,4-difluorocyclohexyl)carbamoyl]-3-(3,5-difluorophenyl)pyridin-2-yl}oxy)propanoate]
< 6.00 | > 8.00 | +++ (+++=>500) | > 8.00 | CCOC(=O)CCCOc1ncc(C(=O)NC2CCC(F)(F)CC2)c(N2CC[C@H](N)C2)c1-c1cc(F)cc(F)c1 [1-202, ethyl 4-({4-[(3S)-3-aminopyrrolidin-1-yl]-5-[(4,4-difluorocyclohexyl)carbamoyl]-3-(3,5-difluorophenyl)pyridin-2-yl}oxy)butanoate]
< 6.00 | > 8.00 | +++ (+++=>500) | > 8.00 | CCOc1cc(-c2c(C(F)(F)F)ncc(C(=O)N[C@@H](C)C3CC3)c2N2CC[C@](C)(N)C2)ccn1 [1-206, 4-[(3S)-3-amino-3-methylpyrrolidin-1-yl]-N-[(1S)-1-cyclopropylethyl]-2′-ethoxy-2-(trifluoromethyl)-[3,4′-bipyridine]-5-carboxamide]
